Laboratory results as given in patent US6620423B2, “Use for pain management” (AstraZeneca AB, priority 1998, dated 2003).
Counter-ions that a name gives are not always drawn.

Key:
[1] = test system: patients with myofascial pain syndrome (MPS); details: bupivacaine 0.25%, lignocaine 1%, local injection, 107 patients; cited from earlier work
[2] = test system: patients with orofacial muscle (myofascial) pain, masseter muscle tender points; test: VAS pain at maximal mouth opening after intramuscular tender point injection; type: in vivo, human
Procedure: Ropivacaine hydrochloride 7.5 mg/ml solution for injection was used (Naropin®, Astra AB, Sweden). Ropivacaine was administered as a single dose intra-muscular tender point (TP) injection. Injection by means of one needle insertion per tender point was preceded by aspiration before infiltrating the study drug over the entire tender area. A standard disposable syringe with a 0.4 mm diameter needle was used. Injection rate was about 1 ml/30 sec. Injections were made at one occassion at a visit to the clinic. Follow-up data were obtained at a study end visit to the clinic 1 week after the injection. Ten patients (5 men and 5 women) whose age varied from 19 years to 69 years (mean 42.9 years of age) were included in this test. The duration of complaints ranged from 1 month up to 10 years (mean 26.5 months). All patients were subjected to unilateral injections of ropivacaine into tender points of the masseter muscle. Three patients received 1 ml, 5 patients received 2 ml, 1 patient received 3 ml and 1 patient received 4 ml of the study drug. (i) Pain on maximal mouth opening The patient rated their pain on a 100 mm visual analogue scale (VAS). On the VAS, 0 represents “no pain” and 100 represents “worst pain imaginable”. The primary efficacy variable was VAS pain score at maximal mouth opening. The patient was asked to open the mouth as much as possible and then they rated the experienced pain.

[3] = test system: patients with orofacial muscle (myofascial) pain, masseter muscle tender points; test: Frequency of pain episodes / freedom from muscular pain at follow-up; type: in vivo, human
Procedure: (§1) Ropivacaine hydrochloride 7.5 mg/ml solution for injection was used (Naropin®, Astra AB, Sweden). Ropivacaine was administered as a single dose intra-muscular tender point (TP) injection. Injection by means of one needle insertion per tender point was preceded by aspiration before infiltrating the study drug over the entire tender area. A standard disposable syringe with a 0.4 mm diameter needle was used. Injection rate was about 1 ml/30 sec. Injections were made at one occassion at a visit to the clinic. Follow-up data were obtained at a study end visit to the clinic 1 week after the injection. A case history information including the duration of the present orofacial muscle pain was collected. A clinical examination of the orofacial region including digital palpation of the temporomandibular joints and masticatory muscles. Ten patients (5 men and 5 women) whose age varied from 19 years to 69 years (mean 42.9 years of age) were included in this test. The duration of complaints ranged from 1 month up to 10 years (mean 26.5 months). All patients were subjected to unilateral injections of ropivacaine into tender points of the masseter muscle. Three patients received 1 ml, 5 patients received 2 ml, 1 patient received 3 ml and 1 patient received 4 ml of the study drug.

[4] = test system: patients with orofacial muscle (myofascial) pain, masseter muscle tender points; test: VAS pain at rest (jaw at rest) after intramuscular tender point injection; type: in vivo, human
Procedure: as §1, with “injection.” for “injection. A case history information including the duration of the present orofacial muscle pain was collected. A clinical examination of the orofacial region including digital palpation of the temporomandibular joints and masticatory muscles.”, “drug. (ii) Pain at rest The non-functional pain (jaw at rest) was also assessed by the patient on the VAS scale. This parameter was rated before the rating of pain on maximal mouth opening.” for “drug.”

SMILES	Effect on pain compared between bupivacaine, lignocaine and saline [1]	Pain at maximal jaw opening, 100 mm VAS, Follow-up, Max ([2]; 10 patients, 7.5 mg/ml single i.m. injection, follow-up 1 week, baseline max 95)	Pain at maximal jaw opening, 100 mm VAS, Follow-up, Mean ([2]; 10 patients, 7.5 mg/ml single i.m. injection, follow-up 1 week, baseline mean 59.3, S.D. 32.34)	Pain at maximal jaw opening, 100 mm VAS, Follow-up, Min ([2]; 10 patients, 7.5 mg/ml single i.m. injection, follow-up 1 week, baseline min 8)	Pain at maximal jaw opening, 100 mm VAS, Follow-up, Median ([2]; 10 patients, 7.5 mg/ml single i.m. tender point injection (1-4 ml), follow-up 1 week, baseline median 59.5)	VAS rated pain at maximal mouth opening, change as a result of the treatment ([2]; baseline vs follow-up 1 week, result in words)	Patients who became free or almost free of their muscular pain ([3]; FIG. 1, 10 patients treated)	Patients with pain at one occasion during the week prior to follow-up ([3]; of 10 patients)	Patients with pain several times a week or every day at follow-up ([3]; of 10 patients)	Patients with not a single episode with pain during the week prior to follow-up ([3]; of 10 patients, at baseline 2 had pain every day, 8 several times per week)	Pain at rest, 100 mm VAS, Follow-up, Max ([4]; 10 patients, 7.5 mg/ml single i.m. injection, follow-up 1 week, baseline max 89)	Pain at rest, 100 mm VAS, Follow-up, Mean ([4]; 10 patients, 7.5 mg/ml single i.m. injection, follow-up 1 week, baseline mean 33.3)	Pain at rest, 100 mm VAS, Follow-up, Median ([4]; 10 patients, 7.5 mg/ml single i.m. injection, follow-up 1 week, baseline median 19.5)	Pain at rest, 100 mm VAS, Follow-up, Min ([4]; 10 patients, 7.5 mg/ml single i.m. injection, follow-up 1 week, baseline min 3)	Pain at rest, change as the result of the treatment ([4]; baseline vs follow-up, result in words)
CCCCN1CCCCC1C(=O)Nc1c(C)cccc1C (stereo not shown) [bupivacaine]	No significant difference	–	–	–	–	–	–	–	–	–	–	–	–	–	–
CCN(CC)CC(=O)Nc1c(C)cccc1C [lignocaine]	No significant difference	–	–	–	–	–	–	–	–	–	–	–	–	–	–
CCCN1CCCC[C@H]1C(=O)Nc1c(C)cccc1C [ropivacaine, (S)-(−)-i-propyl-2′,6′-pipecoloxylidide hydrochloride]	–	75 mm	27.3 mm	0 mm	6 mm	dramatic reduction	6 out of the 10	1 patient	3 patients	6 patients	16 mm	3.7 mm	3.5 mm	0 mm	decreased significantly
